Experimental data published in patent US20230149393A1, “INHIBITORS OF TRPC6 FOR TREATING RESPIRATORY CONDITIONS” (Boehringer Ingelheim International GmbH, priority 2020, published 2023).

Experiments:
[1] = Phase 1 study, healthy adults; cited from earlier work
[2] = test system: virus Influenza A (strain: PR8/34/H1N1); test: Reduction of H1N1-induced vascular leakage in a mouse model (BALF Evans blue); assay type: in vivo, Mice; conditions: 3 mg/kg p.o., 2 h after inoculation and once daily day 1 to day 4; day 6 after inoculation
Procedure: Mice were inoculated intranasally with 200 PFU (Plaque Formation Unit) of virus Influenza A (strain: PR8/34/H1N1). […] was given at 3 mg/kg p.o. 2 h after inoculation and once daily from day 1 to day 4. Evans blue was injected intravenously on day 6, 30 min prior to the euthanasia. […] The supernatant was collected for the measurement of Evans blue by spectrophotometry at the absorbance of 620 nm
At day 6 after inoculation, H1N1 induced lung vascular leakage characterized by an increase in Evans blue extravasation from the blood to the BALF.

[3] = test system: LPS-induced vascular leakage; test: Reduction of LPS-induced vascular leakage in a mouse model (BALF protein); conditions: FIGS. 1A, 1B and 1C; LPS aerosol mouse model
PASMC = conditions: cited from earlier work
TRPC6 = conditions: lung tissue of IPAH patients; cited from earlier work

COc1cc(C(=O)N2CCC(c3ccc(N)nn3)CC2)ncc1Oc1ccc(F)cc1 [BI 764198]
tolerability [1]: well tolerated

COc1cc(C(=O)N2CCC(c3ccc(N)nn3)CC2)ncc1Oc1ccc(F)cc1 [Compound 17, [4-(6-Amino-pyridazin-3-yl)-piperidin-1-yl]-[5-(4-fluoro-phenoxy)-4-methoxy-pyridin-2-yl]-methanone]
reduction of BALF Evans blue [2]: 24% | pulmonary vascular leakage [3]: significantly reduces pulmonary vascular leakage

COc1ccccc1Oc1c(NS(=O)(=O)c2ccc(C(C)(C)C)cc2)nc(-c2ncccn2)nc1OCCO [bosentan]
proliferation of PASMC (PASMC): decreases proliferation of PASMC | expression of TRPC6 (TRPC6): decreases expression of TRPC6
